{
  "source": "patent US4889953A",
  "about": "“Glycerol derivatives, their production and use” (Takeda Chemical Industries, Ltd., priority 1986, dated 1989)",
  "key": {"Sarcoma 180 cells [1]": {"tested_on": "Sarcoma 180 cells", "assay": "Antitumor action, Sarcoma 180 intraperitoneal in ICR mice, life-span and survivors on 40th day (Test Example 1)", "assay_type": "in vivo", "details": "0.33 mg/mouse i.p. three times", "procedure": "Antitumor action of the compounds in Working Examples\nICR mice (a group consisting of five mice) were inoculated intraperitoneally with 1×10^5 Sarcoma 180 cells per mouse, and then given intraperitoneally 0.33 mg/mouse of a compound dissolved in physiological saline, three times, i.e. 1 hour, 1 day and 2 days after inoculation. Reference compound IV, Va or Vb was given to mice under the same conditions. Shown in Table 1 are the life-span prolongation ratio against the untreated control group and the number of survived mice on the 40th day after the initiation of the test."}, "Sarcoma 180 cells [2]": {"tested_on": "Sarcoma 180 cells", "assay": "Antitumor action, Sarcoma 180 subcutaneous in ICR mice, intravenous dosing, tumor proliferation inhibition (Test Example 2)", "assay_type": "in vivo", "details": "0.3 mg/mouse i.v. 9 times; tumor weight after 21 days", "procedure": "(§1) Antitumor action of the compound of Working Example 8\nICR mice (a group consisting of 5 mice) were inoculated subcutaneously with 1×10^6 Sarcoma 180 cells per mouse, and given intravenously 0.03 mg/mouse or 0.3 mg/mouse of the compound of Working Example 8 dissolved in physiological saline 9 times in total, i.e. 8, 9, 10, 13, 14, 15, 16, 17, and 20 days after inoculation. The Reference compound (IV), 0.3 mg/mouse, was given under the same conditions. After 21 days, the tumor tissue was extirpated and the tumor weight was weighed. Shown in Table 2 is tumor proliferation inhibition ratio as compared with the untreated control group."}, "[3]": {"tested_on": "mouse mammary carcinoma cells MM46", "assay": "Antitumor action, MM46 intraperitoneal in C3H mice, life-span and survivors on 40th day (Test Example 3)", "assay_type": "in vivo", "details": "0.25 mg/mouse once a day for 4 days", "procedure": "as §1\nC3H mice (a group consisting of 5 mice) were inoculated intraperitoneally with 1×10^4 mouse mammary carcinoma cells MM46 per mouse, and given 0.25 mg/mouse of the compound of Working Example 8 dissolved in physiological saline once a day for 4 consecutive days starting from the second day after the inoculation. The Reference compound (IV) was given under the same conditions. Shown in Table 3 are the life-span prolongation ratio against the untreated control group and the number of survived mice on the 40th day after initiation of the test."}, "[4]": {"tested_on": "Platelet aggregation caused by PAF", "assay": "Inhibition of PAF-induced platelet aggregation in rabbit PRP (Test Example 5)", "assay_type": "cell-based", "details": "Oryctolagus cuniculus, PAF 1×10^-8 M, read-out: inhibition ratio (%) of PAF-induced platelet aggregation", "procedure": "Blood was collected directly from a male rabbit, using a syringe containing 3.15% of citric acid (at a ratio of 1 part to 9 parts of blood) as an anticoagulant, and centrifuged at 800 rpm for 10 minutes at room temperature to obtain platelet rich plasma (PRP). The remaining blood was centrifuged further at 3000 rpm for 10 minutes to obtain platelet poor plasma (PPP) as the supernatant. By dilution of PRP with PPP, the platelet count was adjusted to about 500,000 cells/μl. After 250 μl of the resulting PRP was stirred at 37° C. for 2 minutes, a certain amount of the test compound was added, and the mixture was stirred for further 2 minutes, and then 1×10^-8 M of PAF was added. Platelet aggregation was measured by using a platelet aggregometer (manufactured by Rika Denki Co. in Japan). The aggregation-inhibiting activity of a test compound was determined from the inhibition ratio against maximal transmittance (maximal aggregation ratio) caused by PAF in the control PRP."}, "[5]": {"details": "due to PAF-related structure; cited from earlier work"}, "[6]": {"details": "unlike PAF; cited from earlier work"}},
  "data": [
    {"smiles": "CCCCCCCCCCCCCCCCCCOCC(COP(=O)([O-])OCC[N+](C)(C)C)OC", "note": "(stereo not shown) [Compound IV, reference compound]", "values": [
      {"measurement": "No. of survivors/No. of mice tested", "setting": "Sarcoma 180 cells [1]", "value": "0/5"},
      {"measurement": "Life-span prolongation ratio (T/C, %)", "setting": "Sarcoma 180 cells [1]; only related to mice found dead", "value": 162, "unit": "%"},
      {"measurement": "Inhibition ratio (1-T/C) (%)", "setting": "Sarcoma 180 cells [2]", "value": 58, "unit": "%"},
      {"measurement": "No. of survivors/No. of mice tested", "setting": "[3]", "value": "0/5"},
      {"measurement": "Life-span prolongation ratio (T/C, %)", "setting": "[3]; survivors not included", "value": 155, "unit": "%"},
      {"measurement": "inhibition at 30 µM", "setting": "[4]; 3 × 10^-5 M", "value": 0, "unit": "%"},
      {"measurement": "inhibition at 3 µM", "setting": "[4]; 3 × 10^-6 M", "value": 0, "unit": "%"},
      {"measurement": "inhibition at 0.3 µM", "setting": "[4]; 3 × 10^-7 M", "value": 0, "unit": "%"},
      {"measurement": "PAF-like actions", "setting": "[5]", "value": "serotonin liberation, bronchial constriction, platelet aggregation, and blood pressure lowering"},
      {"measurement": "antitumor actions", "setting": "[6]", "value": "antitumor actions"}
    ]}
  ]
}
